According to PubChem BioAssay (NCI):
Where “and” joins values, the source holds several entries; their conditions need not be identical. Equal values may be shown once.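 Grown in 96-well plates, cells were treated for 48 hours with each compound at five concentrations. Insufficient inhibition: endpoint recorded as highest concentration tested. GI50 = concentration required for 50% inhibition of growth. TGI marks complete inhibition of growth.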

Legend:
Experiment in all cases: growth of human tumour cells (NCI), 48 h
[1] = test system: SNB-75 CNS
[2] = test system: A498 renal
[3] = test system: SR leukemia
[4] = test system: COLO 205 colon
[5] = test system: HT29 colon
[6] = test system: NCI-H23 lung
[7] = test system: U251 CNS
[8] = test system: NCI/ADR-RES ovarian
[9] = test system: SW-620 colon
[10] = test system: RPMI-8226 leukemia

Compound | GI50 [1] | TGI [1] | GI50 [2] | TGI [2] | GI50 [3] | TGI [3] | GI50 [4] | TGI [4] | GI50 [5] | TGI [5] | GI50 [6] | TGI [6] | GI50 [7] | TGI [7] | GI50 [8] | TGI [8] | GI50 [9] | TGI [9] | GI50 [10] | TGI [10]
COC(=O)[C@@]1(O)C[C@H]2O[C@]1(C)n1c3ccccc3c3c4c(c5c6ccccc6n2c5c31)C(=O)NC4 | 0.185 µM | 1.04 µM | 0.0712 µM | 0.585 µM | 0.0686 µM | 1.75 µM | 0.231 µM | 0.692 µM | 0.212 µM | 2.09 µM | 0.212 µM | 2.36 µM | 1.02 µM | 3.05 µM | 0.415 µM | 3.56 µM | 0.147 µM | 3.11 µM | 0.0784 µM | 1.33 µM
Oc1ccc(N=Nc2ccc(N=Nc3ccccc3)cc2)cc1 | 9.84 µM | 47.8 µM | 9.23 µM | 21.7 µM | 1.79 µM | 14 µM | 8.01 µM | 24.4 µM | 2.86 µM | 9.68 µM | 4.1 µM | 19.5 µM | 10.4 µM | 26.9 µM | 3.67 µM | 39.5 µM | 1.51 µM | 13.9 µM | 2.15 µM | 16 µM
OC(CNC1CCCC1)Cn1c2ccccc2c2ccccc21 (centres undefined) | 12.9 µM | 26.5 µM | 10.7 µM | 47.7 µM | > 100 µM | > 100 µM | > 100 µM | > 100 µM | > 100 µM | > 100 µM | 28.4 µM | 83.7 µM | 21.5 µM | 56.6 µM | 40.6 µM | > 100 µM | > 100 µM | > 100 µM | > 100 µM | > 100 µM
N=C(N)c1ccc(-c2ccc(-c3cccs3)s2)nc1 | 1.78 µM | 4.52 µM | 0.165 µM | 0.74 µM | 1.27 µM | 5.47 µM | 0.248 µM | 1.09 µM | 1.6 µM | 3.83 µM | 3.67 µM | 18.9 µM | 1.66 µM | 3.35 µM | 3.11 µM | 14.5 µM | 1.85 µM | 3.93 µM | 0.434 µM | 2.78 µM
N#Cc1nc2cc(F)c(F)cc2nc1-c1ccc(Cl)cc1 | 33.1 µM | 83.1 µM | 82 µM | > 100 µM | 1.7 µM | 4.35 µM | 26.9 µM | > 100 µM | 7.8 µM | > 100 µM | 7.92 µM | 33.9 µM | 10.4 µM | 25 µM | 10.3 µM | > 81.1 µM | 16 µM | 50.1 µM | 6.17 µM | > 100 µM
COc1ccc2c(c1)OC(N)=C(C#N)C2c1ccc(F)cc1 (centres undefined) | 1.4 µM | 13.3 µM | 2.81 µM | 63.4 µM | 0.51 µM | > 100 µM | 1.74 µM | 10.1 µM | 0.625 µM | 13.5 µM | 4.03 µM | > 100 µM | 3.08 µM | > 100 µM | 0.516 µM | > 100 µM | 0.533 µM | > 100 µM | 2.43 µM | 19.9 µM
CCCCCCCCCCCC[n+]1ccc(C(N)=O)cc1 | 2.08 µM | 6.61 µM | 4.85 µM | 19.5 µM | 4.67 µM | > 100 µM | 1.55 µM | 2.98 µM | 2.18 µM | 13.1 µM | 2.81 µM | 14 µM | 1.14 µM | 3.55 µM | > 100 µM | > 100 µM | 3.16 µM | 14.4 µM | 1.34 µM | 4.86 µM
COC(=O)[C@@H](C)C[C@H](Cc1ccccc1)NC(=O)c1csc([C@@H](C[C@H](C(C)C)N(C)C(=O)C2(NC(=O)[C@H]3CCCCN3C)CC2)OC(C)=O)n1 | 0.00434 µM and 0.00333 µM | > 33.3 µM | 0.00858 µM and < 0.00333 µM |  | 0.000486 µM and 0.00333 µM | > 33.3 µM | 0.00346 µM | 0.0644 µM | 0.00351 µM and 0.00333 µM | 7.65 µM | 0.0172 µM and 0.00333 µM | > 33.3 µM | 0.00913 µM and 0.00333 µM | > 33.3 µM | > 33.3 µM | > 33.3 µM | 0.00317 µM and 0.00333 µM | > 33.3 µM | 0.000613 µM and 0.00333 µM | 17 µM
S=C(Nc1ccccc1)N(Cc1ccccc1)c1ccccc1 |  | > 100 µM |  | 67.2 µM |  | > 100 µM |  | 51.8 µM |  | 85.9 µM |  | > 100 µM |  | > 100 µM |  | > 100 µM |  | > 100 µM |  | > 100 µM
O=C(CCCCCCC(=O)Nc1ccc2c(c1)/C(=C/c1ccc[nH]1)C(=O)N2)NO | 0.194 µM | 65.4 µM | 0.358 µM | 2.06 µM | 0.253 µM | > 100 µM | 0.245 µM | 1.4 µM | 0.506 µM | 8.51 µM | 1.88 µM | 14.8 µM | 0.416 µM | 2.29 µM | 3.86 µM | > 100 µM | 0.271 µM | > 21.9 µM | 2.9 µM | > 100 µM
NCCCCN(Cc1nc2ccccc2[nH]1)[C@H]1CCCc2cccnc21 | 8.53 µM | > 100 µM | 7.81 µM | > 51.8 µM | 4.52 µM | 24.8 µM | 7.65 µM | 26.2 µM | 6.29 µM | 34.1 µM | 20.4 µM | > 100 µM | 11.3 µM | > 67.8 µM | 26.8 µM | > 100 µM | 12.6 µM | > 100 µM | 12 µM | 47.6 µM
CN(C)c1ccc(O)c2c1C[C@H]1C[C@H]3[C@H](N(C)C)C(=O)C(C(N)=O)=C(O)[C@@]3(O)C(=O)C1=C2O | 4.88 µM | 68.7 µM | 1.49 µM | 10.5 µM | 3.48 µM | 22.3 µM | 5.51 µM | 20.5 µM | 10.2 µM | > 100 µM | 4.95 µM | 39.7 µM | 4.5 µM | 57.1 µM | 11.6 µM | > 100 µM | 5.84 µM | > 100 µM | 4.28 µM | 31.1 µM
COCCNC(=O)c1ccc(-c2nc3ccc4[nH]ncc4c3c3c2CCCC3)cc1 | 2.01 µM | 6.24 µM | 0.174 µM | 2.93 µM | 0.558 µM | 6.2 µM | 2.83 µM | 15 µM | 3.11 µM | > 100 µM | 2.41 µM | 31.1 µM | 2.6 µM | > 100 µM | 4.29 µM | > 100 µM | 1.83 µM | 13.9 µM | 1.74 µM | 7.03 µM
COc1cc(/C=C/C(=O)c2c(C)n([O-])c3ccc(Cl)cc3[n+]2=O)cc(OC)c1OC | 17.3 µM | 40.6 µM | 23.5 µM | > 100 µM | 8.4 µM | > 100 µM | > 100 µM | > 100 µM | > 100 µM | > 100 µM | 50.5 µM | > 100 µM | 34.4 µM | > 100 µM | 90.9 µM | > 100 µM | > 100 µM | > 100 µM | > 100 µM | > 100 µM
O=C(CN1C(=O)c2ccccc2C1=O)C(O)CN1C(=O)c2ccccc2C1=O (centres undefined) |  | 39.8 µM |  | > 100 µM |  | > 100 µM |  | > 100 µM |  | > 100 µM |  | > 100 µM |  | 91.5 µM |  | > 100 µM |  | > 100 µM |  | > 100 µM
OC(CNc1ccnc2cc(Cl)ccc12)CNC1CCCCC1 (centres undefined) | 2.1 µM | 8.31 µM | 1.52 µM | 8.16 µM | 1.95 µM | 5.13 µM | 1.69 µM | 3.31 µM | 3.26 µM | 12.2 µM | 15.9 µM | 41 µM | 2.14 µM | 5.37 µM | 18 µM | 53.9 µM | 4.79 µM | 18.3 µM | 10.1 µM | 36.4 µM
O=C(N/N=C\c1ccc(N(CCCl)CCCl)cc1Cl)c1cccnc1 | 20.1 µM | 73.7 µM | 0.0664 µM | 0.179 µM | 7.23 µM | 69.6 µM | 8.5 µM | 38.1 µM | 20.2 µM | > 88.4 µM | 9.59 µM | 54.9 µM | 10.4 µM | 94.1 µM | 19.6 µM | > 94.3 µM | 19.2 µM | > 100 µM | 12.2 µM | 41.4 µM
COC(=O)c1cc2oc(/C=C3\SC(=S)N(NC(C)=O)C3=O)cc2n1Cc1ccccc1 | 7.67 µM | 25.4 µM | 8.07 µM | 16.8 µM | 1.11 µM | > 50 µM | 5.63 µM | 12.6 µM | 3.47 µM | 12.8 µM | 7.12 µM | 16.8 µM | 1.37 µM | 4.49 µM | 7.77 µM | 19.5 µM | 8.35 µM | 39 µM | 0.758 µM | 5.55 µM
